Two compounds from ChEMBL document CHEMBL1148099, “New myrsinol-related polyfunctional pentacyclic diterpene esters from roots of Euphorbia prolifera” (J Nat Prod, 1995) can be followed below.

This data set is described as follows: Skin irritant activity in mouse ear assessed as irritant units per ear after 24 hrs. The note with it: topical_or_ocular. Type of data set: ADME, tissue-based.

`CCC(=O)OC1C(C)CC2(OC(C)=O)C1[C@@H](OC(C)=O)[C@@]13CO[C@@](C)(C2OC(C)=O)C1C1C(C[C@]1(C)OC(C)=O)C(OC(=O)C(C)C)C3=O` (some centres not stated): the Activity was above 1000 µg.
Then `CCC(=O)OC1C(C)CC2(OC(C)=O)C1[C@@H](OC(C)=O)[C@@]13CO[C@@](C)(C2OC(C)=O)C1C1C(C[C@]1(C)OC(C)=O)C(OC(=O)c1ccccc1)C3=O` (some centres not stated), with above 1000 µg.
